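These data come from cells grown in 96-well plates and exposed to compound for 48 hours at five concentrations. GI50: concentration for 50% inhibition of growth. At the TGI there is no net growth.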 Where a SMILES comes first, the peptide text is derived from it. Bridges are numbered along the chain shown (N, C = ends). [ ]: non-standard residue; d: D form. The star is where a group is joined. ξ: configuration not given here. ξDab(CH2SO3H) = NC(CCNCS(=O)(=O)O)C(=O)O; Heptanoyl(6-Me) = CC(C)CCCCC(=O)*; Dab = NCC[CH](N)C(=O)O A value given as a limit tells only on which side of the number the result lay.

Some test systems named below: A549 NSCLC; CCRF-CEM leukemia; KM12 colon; LOX IMVI melanoma; MALME-3M melanoma; MDA-MB-435; MOLT-4 leukemia; NCI-H23 lung; SK-MEL-28 melanoma; M14 melanoma.
What all share (assay): inhibition of tumour cell growth, NCI panel, 48 h

Consider `CC[C@@H](C(=O)[C@H](C)[C@H](O)[C@@H](C)[C@H]1O[C@H]([C@@H](CC)C(=O)N(CC)CC)CC[C@H]1C)C1O[C@]2(C=C[C@@H](O)[C@]3(CC[C@@](C)([C@H]4CC[C@](O)(CC)[C@H](C)O4)O3)O2)[C@H](C)C[C@@H]1C` (stereo partly specified), for which the GI50 with A549 NSCLC is 2.95 µM; in the assay on CCRF-CEM leukemia, 3.39 µM; with KM12 colon it was 2.53 µM; in the assay on LOX IMVI melanoma, 1.83 µM; with MALME-3M melanoma it was 2.21 µM; with MDA-MB-435, 2.81 µM. In addition, the GI50 in the assay on MOLT-4 leukemia was 2.55 µM; with NCI-H23 lung it was 2.81 µM; with SK-MEL-28 melanoma, 4.97 µM. Further, the TGI came out at 17.6 µM in the assay on A549 NSCLC; 13.4 µM in the assay on CCRF-CEM leukemia; 7.03 µM with KM12 colon; 4.29 µM in the assay on LOX IMVI melanoma; 5.7 µM in the assay with MALME-3M melanoma; 9.8 µM with MDA-MB-435. Also, the TGI in the assay on MOLT-4 leukemia is 7.05 µM; in the assay with NCI-H23 lung it was 8.94 µM; in the assay on SK-MEL-28 melanoma, 17 µM.
In the case of `CCC(C)C1NC(=O)C(CCNCS(=O)(=O)O)NC(=O)C(NC(=O)C(CCNCS(=O)(=O)O)NC(=O)C(NC(=O)C(CCNCS(=O)(=O)O)NC(=O)CCCCC(C)C)C(C)O)CCNC(=O)C(C(C)O)NC(=O)C(CCNCS(=O)(=O)O)NC(=O)C(CCNCS(=O)(=O)O)NC(=O)C(C(C)CC)NC1=O` (stereo unspecified) ({Heptanoyl(6-Me)}-[ξDab(CH2SO3H)]T[ξDab(CH2SO3H)][Dab][ξDab(CH2SO3H)]II[ξDab(CH2SO3H)][ξDab(CH2SO3H)]T; lactam 4-C; configuration not given here), the GI50 in the assay on A549 NSCLC was over 25 µM; in the assay on KM12 colon, 2.99 µM; in the assay with LOX IMVI melanoma, 5.21 µM; with M14 melanoma, 5.72 µM; with MALME-3M melanoma, over 25 µM; in the assay on MDA-MB-435, 0.93 µM. In addition, the GI50 was 8.47 µM in the assay with MOLT-4 leukemia, 7.41 µM with NCI-H23 lung and 2.72 µM in the assay on SK-MEL-28 melanoma. Besides, the TGI in the assay on A549 NSCLC is over 25 µM; in the assay on KM12 colon, 9.55 µM; in the assay on LOX IMVI melanoma it was over 25 µM; with M14 melanoma it was 20.6 µM; in the assay with MALME-3M melanoma, over 25 µM; in the assay with MDA-MB-435, 5.02 µM. In addition, the TGI in the assay on MOLT-4 leukemia, with NCI-H23 lung and in the assay on SK-MEL-28 melanoma was over 25 µM each time.
`COc1cc(-c2oc3c(OC)cc(OC)c(O)c3c(=O)c2OC)cc(OC)c1OC`: the TGI with A549 NSCLC, in the assay with KM12 colon, in the assay with LOX IMVI melanoma, with M14 melanoma, in the assay with MALME-3M melanoma and with MDA-MB-435 was over 100 µM throughout. In addition, the TGI with MOLT-4 leukemia, with NCI-H23 lung and with SK-MEL-28 melanoma was over 100 µM in each case.
Regarding `COc1ccc2c(O)c(/C=C3\N=Nc4ccccc43)oc2c1C[C@@H]1CCNC[C@H]1F`, the GI50 was 13.5 µM with A549 NSCLC; 2.33 µM in the assay on CCRF-CEM leukemia; 0.695 µM in the assay with KM12 colon; 1.6 µM with LOX IMVI melanoma; 6.12 µM with M14 melanoma; 3.33 µM in the assay on MALME-3M melanoma. In addition, the GI50 in the assay with MDA-MB-435 was 11.3 µM; in the assay on MOLT-4 leukemia it was 4.5 µM; in the assay on NCI-H23 lung, 10.6 µM. The TGI in the assay with A549 NSCLC was 28 µM; in the assay on CCRF-CEM leukemia, 6.1 µM; in the assay on KM12 colon, 12 µM; in the assay on LOX IMVI melanoma, 2.99 µM; in the assay on M14 melanoma, 21.4 µM; in the assay with MALME-3M melanoma it was 22.5 µM. Also, the values for the TGI in the assay with MDA-MB-435, in the assay on MOLT-4 leukemia and in the assay with NCI-H23 lung were 24.4 µM, 21.1 µM and 24.6 µM, respectively.
On to `CC(N)(/C=C/c1ccccc1)C(=O)O` (stereo unspecified), for which the TGI in the assay on A549 NSCLC, with KM12 colon, in the assay with LOX IMVI melanoma, in the assay on M14 melanoma, in the assay with MALME-3M melanoma and in the assay on MDA-MB-435 was over 100 µM throughout. The TGI in the assay with MOLT-4 leukemia, with NCI-H23 lung and in the assay on SK-MEL-28 melanoma was over 100 µM each time.
For `COc1ccc2cc(C(=O)/C=C/c3ccc(N(C)C)cc3)ccc2c1`, the GI50 in the assay on A549 NSCLC was 60.3 µM; with KM12 colon it was over 100 µM; in the assay on LOX IMVI melanoma, 48.1 µM; in the assay on M14 melanoma, over 100 µM; in the assay with MALME-3M melanoma it was over 100 µM; in the assay with MDA-MB-435, 93.1 µM. Also, the GI50 is over 100 µM with MOLT-4 leukemia, 41.6 µM with NCI-H23 lung and over 100 µM with SK-MEL-28 melanoma. Besides, the TGI with A549 NSCLC, in the assay with KM12 colon, in the assay with LOX IMVI melanoma, with M14 melanoma, in the assay with MALME-3M melanoma and in the assay with MDA-MB-435 was over 100 µM each time. The TGI in the assay with MOLT-4 leukemia, in the assay with NCI-H23 lung and in the assay with SK-MEL-28 melanoma was over 100 µM in each case.
On to `CCc1nc(N)nc(N)c1-c1ccc2nnn(O)c2c1`, for which the TGI in the assay on A549 NSCLC, in the assay with CCRF-CEM leukemia, in the assay with KM12 colon, with LOX IMVI melanoma, with M14 melanoma and in the assay with MDA-MB-435 was over 100 µM in each case. For the same compound, the TGI in the assay with MOLT-4 leukemia, in the assay with NCI-H23 lung and with SK-MEL-28 melanoma was over 100 µM each time.
As for `Clc1ccc(Nc2ccnc(N3CCN(c4ccnc5cc(Cl)ccc45)CC3)n2)cc1`, the GI50 in the assay with A549 NSCLC is 3.32 µM; in the assay with CCRF-CEM leukemia it was 3.07 µM; with KM12 colon it was 3.04 µM; in the assay on LOX IMVI melanoma it was 1.84 µM; with M14 melanoma it was 1.77 µM; in the assay on MALME-3M melanoma, 2.32 µM. Further, the GI50 is 1.86 µM with MDA-MB-435, 2.94 µM with MOLT-4 leukemia and 4.32 µM in the assay on NCI-H23 lung. In addition, the TGI in the assay on A549 NSCLC is over 100 µM; in the assay on CCRF-CEM leukemia it was 20.6 µM; with KM12 colon it was 11.5 µM; in the assay on LOX IMVI melanoma, 3.58 µM; in the assay on M14 melanoma, 4.16 µM; with MALME-3M melanoma, 9.82 µM. The results for the TGI with MDA-MB-435, in the assay with MOLT-4 leukemia and with NCI-H23 lung were 5.99 µM, 9.97 µM and 52.3 µM, respectively.
As to `O=C(NC(=O)c1ccccc1[N+](=O)[O-])Nc1ccc(Oc2ncc(Cl)cn2)c([N+](=O)[O-])c1`, the TGI in the assay with A549 NSCLC is over 100 µM; with CCRF-CEM leukemia, over 100 µM; in the assay on KM12 colon it was over 66.3 µM; with LOX IMVI melanoma it was over 100 µM; in the assay on M14 melanoma, over 100 µM; with MALME-3M melanoma, over 100 µM. Further, the TGI was 0.197 µM in the assay with MDA-MB-435, over 100 µM in the assay with MOLT-4 leukemia and over 28 µM in the assay with NCI-H23 lung.

The values above are taken from PubChem BioAssay (NCI).
